Data reported in PubChem BioAssay AID1918931 (Molecular Pharmacology Branch, DTP, NCI, 2023).
pIC50: −log10 of the molar value.

Tested on: 138582-337-R-J1-PDC complex spheroid viability
Assay: Anticancer human tumor 138582-337-R-J1-PDC patient-derived Merkel cell tumor cell line growth inhibition
Conditions: for pIC50: curve of first compound; for viability, T/C: stronger effect = lower value
Source text: Multicellular complex tumor spheroid response to LSD1 Inhibitor Iadademstat in combination with a variety of drugs and investigational agents in selected tumor cell lines
The current study was undertaken to assess response to LSD1 inhibitors in combination with standard-of-care drugs and investigational agents in solid tumor complex spheroid models as well as in the K-562 leukemia. Complex spheroids include a stromal component modeled by human endothelial cells (HUVEC) and fibroblasts modeled by human mesenchymal stem cells (MSCs). The concentration ranges selected for each drug and investigational agent were based upon clinically achievable concentrations if the clinical Cmax of the agent was known.
Compounds. The drugs and investigational agents used in this study are listed on Table 1. All of the agents used, including staurosporine (NSC755774) and gemcitabine (NSC613327), were obtained from the Developmental Therapeutics Program, NCI. FDA-approved anticancer drugs are available from the NCI at http://dtp.nci.nih.gov/branches/dscb/oncology_drugset_explanation.html. Drugs and investigational agents were >95% pure by proton nuclear magnetic resonance (NMR) and liquid chromatography/mass spectrometry (LC/MS). Stock solutions were prepared at 400x in DMSO, stored at -70 degrees C, and diluted in fresh medium prior to their use. The final concentration of DMSO in cell culture wells never exceeded 0.25% (v/v). The FDA-approved anticancer drug set is available from the Developmental Therapeutics Program at https://dtp.cancer.gov/organization/dscb/obtaining/available_plates.htm. All drugs and investigational agents were tested over a range starting from a high concentration at or near the clinical Cmax and decreasing in half-log increments. If the clinical Cmax for an agent had not been determined, the highest concentration tested was 10 microM.
Cell Lines. The patient-derived cancer cell (PDC) lines: 292921-168-R-J2-PDC, K24384-001-R-PDC, and 521955-158-R2-J5-PDC pancreatic carcinomas, 556581-035-R-J1 ovarian carcinoma, 324938-238-R-J1-PDC, 855422-203-R-J1-PDC and 883617-216-R-J1-PDC urothelial bladder carcinomas, 743489-274-T-PDC renal cell carcinoma, 138582-R-J1 Merkel cell tumor, K60290-347-R-J1 and K57222-313-R-J1-PDC glioblastomas, 653999-131-R-J2-PDC, LG0703-F948-PDC, and 349418-098-R-PDC non-small cell lung carcinomas, 885512-296-R-J2-PDC, 171881-019-R-J1-PDC breast carcinomas and 186277-243-T-J2-PDC and 233499-124-R-J2-PDC colon carcinomas were obtained from the NCI Patient-Derived Models Repository (PDMR, https://pdmr.cancer.gov). The established cell lines NCI/ADR-RES (RRID:CVCL_14520 and OVCAR-5 (RRID:CVCL_1628) ovarian carcinomas, 786-O (RRID:CVCL_1051) and A498 (RRID:CVCL_A498) renal cell carcinoma, NCI-H211 (ATCC, cat. CRL-5824; RRID:CVCL_1529), NCI-H196 (ATCC, cat. CRL-5823, RRID:CVCL_1509), SW 1271 (ATCC, cat. CRL-2177, RRID:CVCL_1716) and NCI-H1876 (ATCC, cat. CRL-5902, RRID:CVCL_1503) small cell lung carcinomas, MDA-MB-231 (RRID:CVCL_0062) and MDA-MB-468 (RRID:CVCL_0419)breast carcinomas (10-12). Pooled donor human umbilical vein endothelial cells (HUVEC, Lonza, cat. CC-2519) and human mesenchymal stem cells (hMSC, Lonza, cat. PT-2501) were purchased from Lonza (Walkersville, MD).
Cell Culture. All cells were maintained in an incubator at 37 degrees C and 5% CO2 with 95% humidity. The PDC lines were cultured according to standard operating procedures established by the NCI PDMR (https://pdmr.cancer.gov). Briefly all PDCs were thawed and cultured in Matrigel-coated flasks prepared with a working solution of 1X Ham's F-12 nutrient mix, without supplementation (Invitrogen, Waltham, MA, cat. 11765054), 100 U/mL penicillin-streptomycin (Invitrogen, cat. 15140122), and 2.5% Matrigel (Corning Inc., Corning, NY, cat. 354248) for the first three passages. […]

[1] = second compound 0.1 µM, first compound 0.000316 µM
[2] = second compound 0.1 µM, first compound 0.001 µM
[3] = second compound 0.1 µM, first compound 0.00316 µM
[4] = second compound 0.1 µM, first compound 0.01 µM
[5] = second compound 0.1 µM, first compound 0.0316 µM
[6] = second compound 0.1 µM, first compound 0.1 µM
[7] = second compound 0.316 µM, first compound 0.000316 µM
[8] = second compound 0.316 µM, first compound 0.001 µM
[9] = second compound 0.316 µM, first compound 0.00316 µM
[10] = second compound 0.316 µM, first compound 0.01 µM
[11] = second compound 0.316 µM, first compound 0.0316 µM
[12] = second compound 0.316 µM, first compound 0.1 µM
[13] = second compound 1 µM, first compound 0.000316 µM
[14] = second compound 1 µM, first compound 0.001 µM
[15] = second compound 1 µM, first compound 0.00316 µM
[16] = second compound 1 µM, first compound 0.01 µM
[17] = second compound 1 µM, first compound 0.0316 µM
[18] = second compound 1 µM, first compound 0.1 µM
[19] = second compound 3.16 µM, first compound 0.000316 µM
[20] = second compound 3.16 µM, first compound 0.001 µM
[21] = second compound 3.16 µM, first compound 0.00316 µM
[22] = second compound 3.16 µM, first compound 0.01 µM
[23] = second compound 3.16 µM, first compound 0.0316 µM
[24] = second compound 3.16 µM, first compound 0.1 µM
[25] = second compound 10 µM, first compound 0.000316 µM
[26] = second compound 10 µM, first compound 0.001 µM
[27] = second compound 10 µM, first compound 0.00316 µM
[28] = second compound 10 µM, first compound 0.01 µM
[29] = second compound 10 µM, first compound 0.0316 µM
[30] = second compound 10 µM, first compound 0.1 µM
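Further: spheroids exposed to agents for 7 days.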
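Wherever viability, T/C is given: 100% = DMSO vehicle control viability.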

| Structure (SMILES) | pIC50 (second compound 0.1 µM) | pIC50 (second compound 0.316 µM) | pIC50 (second compound 1 µM) | pIC50 (second compound 3.16 µM) | pIC50 (second compound 10 µM) | viability, T/C [1] | viability, T/C [2] | viability, T/C [3] | viability, T/C [4] | viability, T/C [5] | viability, T/C [6] | viability, T/C [7] | viability, T/C [8] | viability, T/C [9] | viability, T/C [10] | viability, T/C [11] | viability, T/C [12] | viability, T/C [13] | viability, T/C [14] | viability, T/C [15] | further results |
| --- | --- | --- | --- | --- | --- | --- | --- | --- | --- | --- | --- | --- | --- | --- | --- | --- | --- | --- | --- | --- | --- |
| CC(C)CC(NC(=O)C(Cc1ccccc1)NC(=O)c1cnccn1)B(O)O (stereo not given) + NC1CC1c1ccc(-c2cccc(O)c2)cc1 | 9.29 | 9.32 | 9.37 | 9.43 | 9.39 | 85.2% | 0.72% | 0.11% | 0.11% | 0.08% | 0.28% | 77% | 0.78% | 1.61% | 0.94% | 0.07% | 0.15% | 66% | 2.41% | 0.13% | viability, T/C [16]: 0.11%; viability, T/C [17]: 0.07%; viability, T/C [18]: 0.18%; viability, T/C [19]: 57.5%; viability, T/C [20]: 2.76%; viability, T/C [21]: 0.12%; viability, T/C [22]: 0.32%; viability, T/C [23]: 0.11%; viability, T/C [24]: 0.17%; viability, T/C [25]: 62.5%; viability, T/C [26]: 4.98%; viability, T/C [27]: 1.52%; viability, T/C [28]: 1.12%; viability, T/C [29]: 1.32%; viability, T/C [30]: 0.55% |
| CC(C)CC(NC(=O)CNC(=O)c1cc(Cl)ccc1Cl)B1OC(=O)CC(CC(=O)O)(C(=O)O)O1 (stereo not given) + NC1CC1c1ccc(-c2cccc(O)c2)cc1 | 7.93 | 8.07 | 8.08 | 8.00 | 8.02 | 94.3% | 98.9% | 101% | 58.3% | 1.47% | 0.24% | 80.7% | 95% | 115% | 42.8% | 4.55% | 0.6% | 92.5% | 112% | 140% | viability, T/C [16]: 38.1%; viability, T/C [17]: 2.09%; viability, T/C [18]: 0.29%; viability, T/C [19]: 113%; viability, T/C [20]: 104%; viability, T/C [21]: 126%; viability, T/C [22]: 50.3%; viability, T/C [23]: 2.37%; viability, T/C [24]: 0.26%; viability, T/C [25]: 110%; viability, T/C [26]: 139%; viability, T/C [27]: 129%; viability, T/C [28]: 46.3%; viability, T/C [29]: 0.57%; viability, T/C [30]: 0.27% |
